# Source: patent publication US20230123334A1, “AMINO LIPID COMPOUND, PREPARATION METHOD THEREFOR, AND APPLICATION THEREOF” (SHENZHEN SHENXIN BIOTECHNOLOGY CO., LTD., priority 2020, published 2023)
# Tested on: HEK293 cells
# Test: Preliminary screening as DNA vectors, GFP transfection of HEK293 cells
# Format: cell-based
# Details: amino lipid/DOPE liposome with 75 ng plasmid DNA (psin-EGFP-IRES-Puro); number of GFP-expressing cells divided by total nuclei (Hoechst)
# Outline: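 HEK293 cells in DMEM/10% FBS transfected with 75 ng EGFP plasmid per well complexed with amino lipid/DOPE liposomes in pH 5.6 sodium acetate. Hoechst nuclear stain added 20-24 h post-transfection, then cells cultured another 20-24 h. Confocal imaging gives GFP-positive cells as % of total nuclei.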
row,Compound,Absolute DNA transfection efficiency in HEK293 cells
1,CCCCCCCCCNc1nc(NCCCN(C)C)nc(SCCCCCCC)n1 [S7N9 D6],25.9%
2,CCCCCCCCCNc1nc(NCCN(CC)CC)nc(SCCCCCCC)n1 [S7N9 D7],33.2%
3,CCCCCCCCCNc1nc(NCCCN2CCOCC2)nc(SCCCCCCC)n1 [S7N9 D8],4.6%
4,CCCCCCCCCNc1nc(NCCCN2CCN(C)CC2)nc(SCCCCCCC)n1 [S7N9 D9],22.8%
5,CCCCCCCCCNc1nc(NCC2CCN(C)CC2)nc(SCCCCCCC)n1 [S7N9 D10],15.0%
6,CCCCCCCCCCCNc1nc(NCCN(C)C)nc(SCCCCCCC)n1 [S7N11 D1],20.3%
7,CCCCCCCCCCCNc1nc(NCCN2CCOCC2)nc(SCCCCCCC)n1 [S7N11 D2],31.1%
8,CCCCCCCCCCCNc1nc(NCCN2CCCC2)nc(SCCCCCCC)n1 [S7N11 D3],25.3%
9,CCCCCCCCCCCNc1nc(NCCN2CCCCC2)nc(SCCCCCCC)n1 [S7N11 D4],6.9%
10,CCCCCCCCCCCNc1nc(NCCN2CCN(C)CC2)nc(SCCCCCCC)n1 [S7N11 D5],43.7%
11,CCCCCCCCCCCNc1nc(NCCCN(C)C)nc(SCCCCCCC)n1 [S7N11 D6],42.1%
12,CCCCCCCCCCCNc1nc(NCCN(CC)CC)nc(SCCCCCCC)n1 [S7N11 D7],9.6%
13,CCCCCCCCCCCNc1nc(NCCCN2CCOCC2)nc(SCCCCCCC)n1 [S7N11 D8],13.9%
14,CCCCCCCCCCCNc1nc(NCCCN2CCN(C)CC2)nc(SCCCCCCC)n1 [S7N11 D9],43.9%
15,CCCCCCCCCCCNc1nc(NCC2CCN(C)CC2)nc(SCCCCCCC)n1 [S7N11 D10],45.9%
16,CCCCCCCCCCCCNc1nc(NCCN(C)C)nc(SCCCCCCC)n1 [S7N12 D1],18.2%
17,CCCCCCCCCCCCNc1nc(NCCN2CCOCC2)nc(SCCCCCCC)n1 [S7N12 D2],25.6%
18,CCCCCCCCCCCCNc1nc(NCCN2CCCC2)nc(SCCCCCCC)n1 [S7N12 D3],17.4%
19,CCCCCCCCCCCCNc1nc(NCCN2CCCCC2)nc(SCCCCCCC)n1 [S7N12 D4],9.7%
20,CCCCCCCCCCCCNc1nc(NCCN2CCN(C)CC2)nc(SCCCCCCC)n1 [S7N12 D5],35.1%
21,CCCCCCCCCCCCNc1nc(NCCCN(C)C)nc(SCCCCCCC)n1 [S7N12 D6],54.6%
22,CCCCCCCCCCCCNc1nc(NCCN(CC)CC)nc(SCCCCCCC)n1 [S7N12 D7],5.5%
23,CCCCCCCCCCCCNc1nc(NCCCN2CCOCC2)nc(SCCCCCCC)n1 [S7N12 D8],17.7%

row,Compound,Absolute DNA transfection efficiency in HEK293 cells
1,CCCCCCCCCCCCNc1nc(NCCCN2CCN(C)CC2)nc(SCCCCCCC)n1 [S7N12 D9],46.4%
2,CCCCCCCCCCCCNc1nc(NCC2CCN(C)CC2)nc(SCCCCCCC)n1 [S7N12 D10],45.7%
3,CCCCCCCCCCCCCNc1nc(NCCN(C)C)nc(SCCCCCCC)n1 [S7N13 D1],11.7%
4,CCCCCCCCCCCCCNc1nc(NCCN2CCOCC2)nc(SCCCCCCC)n1 [S7N13 D2],22.1%
5,CCCCCCCCCCCCCNc1nc(NCCN2CCCC2)nc(SCCCCCCC)n1 [S7N13 D3],17.9%
6,CCCCCCCCCCCCCNc1nc(NCCN2CCCCC2)nc(SCCCCCCC)n1 [S7N13 D4],6.4%
7,CCCCCCCCCCCCCNc1nc(NCCN2CCN(C)CC2)nc(SCCCCCCC)n1 [S7N13 D5],23.3%
8,CCCCCCCCCCCCCNc1nc(NCCCN(C)C)nc(SCCCCCCC)n1 [S7N13 D6],43.2%
9,CCCCCCCCCCCCCNc1nc(NCCN(CC)CC)nc(SCCCCCCC)n1 [S7N13 D7],3.1%
10,CCCCCCCCCCCCCNc1nc(NCCCN2CCOCC2)nc(SCCCCCCC)n1 [S7N13 D8],17.3%
11,CCCCCCCCCCCCCNc1nc(NCCCN2CCN(C)CC2)nc(SCCCCCCC)n1 [S7N13 D9],36.9%
12,CCCCCCCCCCCCCNc1nc(NCC2CCN(C)CC2)nc(SCCCCCCC)n1 [S7N13 D10],54.2%
13,CCCCCCCCCCCCCCCNc1nc(NCCN(C)C)nc(SCCCCCCC)n1 [S7N15 D1],19.5%
14,CCCCCCCCCCCCCCCNc1nc(NCCN2CCOCC2)nc(SCCCCCCC)n1 [S7N15 D2],14.1%
15,CCCCCCCCCCCCCCCNc1nc(NCCN2CCCC2)nc(SCCCCCCC)n1 [S7N15 D3],31.4%
16,CCCCCCCCCCCCCCCNc1nc(NCCN2CCCCC2)nc(SCCCCCCC)n1 [S7N15 D4],4.9%
17,CCCCCCCCCCCCCCCNc1nc(NCCN2CCN(C)CC2)nc(SCCCCCCC)n1 [S7N15 D5],20.4%
18,CCCCCCCCCCCCCCCNc1nc(NCCCN(C)C)nc(SCCCCCCC)n1 [S7N15 D6],15.9%
19,CCCCCCCCCCCCCCCNc1nc(NCCN(CC)CC)nc(SCCCCCCC)n1 [S7N15 D7],7.2%
20,CCCCCCCCCCCCCCCNc1nc(NCCCN2CCOCC2)nc(SCCCCCCC)n1 [S7N15 D8],7.9%
21,CCCCCCCCCCCCCCCNc1nc(NCCCN2CCN(C)CC2)nc(SCCCCCCC)n1 [S7N15 D9],17.6%
22,CCCCCCCCCCCCCCCNc1nc(NCC2CCN(C)CC2)nc(SCCCCCCC)n1 [S7N15 D10],30.9%
23,CCCCCCCCCCCCCCCCNc1nc(NCCN(C)C)nc(SCCCCCCC)n1 [S7N16 D1],20.0%

row,Compound,Absolute DNA transfection efficiency in HEK293 cells
1,CCCCCCCCCCCCCCCCNc1nc(NCCN2CCOCC2)nc(SCCCCCCC)n1 [S7N16 D2],12.9%
2,CCCCCCCCCCCCCCCCNc1nc(NCCN2CCCC2)nc(SCCCCCCC)n1 [S7N16 D3],21.2%
3,CCCCCCCCCCCCCCCCNc1nc(NCCN2CCCCC2)nc(SCCCCCCC)n1 [S7N16 D4],2.9%
4,CCCCCCCCCCCCCCCCNc1nc(NCCN2CCN(C)CC2)nc(SCCCCCCC)n1 [S7N16 D5],18.2%
5,CCCCCCCCCCCCCCCCNc1nc(NCCCN(C)C)nc(SCCCCCCC)n1 [S7N16 D6],26.2%
6,CCCCCCCCCCCCCCCCNc1nc(NCCN(CC)CC)nc(SCCCCCCC)n1 [S7N16 D7],6.4%
7,CCCCCCCCCCCCCCCCNc1nc(NCCCN2CCOCC2)nc(SCCCCCCC)n1 [S7N16 D8],8.1%
8,CCCCCCCCCCCCCCCCNc1nc(NCCCN2CCN(C)CC2)nc(SCCCCCCC)n1 [S7N16 D9],12.9%
9,CCCCCCCCCCCCCCCCNc1nc(NCC2CCN(C)CC2)nc(SCCCCCCC)n1 [S7N16 D10],15.8%
10,CCCCCCCCCCCCCCCCCCNc1nc(NCCN(C)C)nc(SCCCCCCC)n1 [S7N18 D1],10.6%
11,CCCCCCCCCCCCCCCCCCNc1nc(NCCN2CCOCC2)nc(SCCCCCCC)n1 [S7N18 D2],16.6%
12,CCCCCCCCCCCCCCCCCCNc1nc(NCCN2CCCC2)nc(SCCCCCCC)n1 [S7N18 D3],16.1%
13,CCCCCCCCCCCCCCCCCCNc1nc(NCCN2CCCCC2)nc(SCCCCCCC)n1 [S7N18 D4],3.2%
14,CCCCCCCCCCCCCCCCCCNc1nc(NCCN2CCN(C)CC2)nc(SCCCCCCC)n1 [S7N18 D5],8.2%
15,CCCCCCCCCCCCCCCCCCNc1nc(NCCCN(C)C)nc(SCCCCCCC)n1 [S7N18 D6],18.4%
16,CCCCCCCCCCCCCCCCCCNc1nc(NCCN(CC)CC)nc(SCCCCCCC)n1 [S7N18 D7],3.9%
17,CCCCCCCCCCCCCCCCCCNc1nc(NCCCN2CCOCC2)nc(SCCCCCCC)n1 [S7N18 D8],5.9%
18,CCCCCCCCCCCCCCCCCCNc1nc(NCCCN2CCN(C)CC2)nc(SCCCCCCC)n1 [S7N18 D9],4.2%
19,CCCCCCCCCCCCCCCCCCNc1nc(NCC2CCN(C)CC2)nc(SCCCCCCC)n1 [S7N18 D10],16.3%
20,CCCCCCCSc1nc(NCCN(C)C)nc(SCCCCCCC)n1 [S7S7 D1],7.9%
21,CCCCCCCSc1nc(NCCN2CCOCC2)nc(SCCCCCCC)n1 [S7S7 D2],2.2%
22,CCCCCCCSc1nc(NCCN2CCCC2)nc(SCCCCCCC)n1 [S7S7 D3],9.2%
